Test results taken from patent US4032645A, “Injectable metronidazole composition” (G. D. Searle & Co., priority 1975, dated 1977).
Like-named read-outs stand apart in the source and are kept apart here.

Key:
[1] = format: physicochemical; details: for amount dissolved: ethanol
Text: The critical features of the solubility of metronidazole, [1-(2-hydroxyethyl)-2-methyl-5-nitroimidazole] are evident from FIGS. 1 through 6.
It is observed that the optimum solubility in water-ethanol mixtures occur at about 80% ethanol.
It is considered desirable to maintain N,N-dimethylacetamide concentrations in any formulation at a relatively low level. In FIG. 2, it is shown that 20% N,N-dimethylacetamide is not a suitable solvent system in combination with water or ethanol alone. Those satisfied with less desirable formulation could use a solvent system of 20% N,N-dimethylacetamide, 40% water, and 40% ethanol. […] One would also believe this for combinations of 30% N,N-dimethylacetamide and water and ethanol.
It can be observed from FIG. 3 that, unexpectedly, a solvent system of 30% N,N-dimethylacetamide in combination with the indicated proportions of ethanol and water solubilizes more than 500 mg./10 ml. of metronidazole.
Also, unexpectedly, FIGS. 4, 5 and 6 illustrate that the combination of ethanol, water and N,N-dimethylacetamide can be made to dissolve more than 500 mg. of metronidazole by the addition of nicotinamide, propylene glycol or 2,2-dimethyl-1,3-dioxolane-4-methanol. These systems have the advantages of an even lower percentage composition of N,N-dimethylacetamide. Optimum systems and the solubility of metroinidazole therein are illustrated in Table 1.

[2] = water; cited from earlier work
[3] = most stable at a pH range; cited from earlier work

Cc1ncc([N+](=O)[O-])n1CCO [metronidazole, 1-(2-hydroxyethyl)-2-methyl-5-nitroimidazole]
ethanol content at optimum solubility in water-ethanol mixtures [1]: about 80% | solubility [1]: more than 500 mg./10 ml. | amount dissolved ([1]; water and N,N-dimethylacetamide with addition of 2,2-dimethyl-1,3-dioxolane-4-methanol (FIG. 5)): more than 500 mg. | amount dissolved ([1]; water and N,N-dimethylacetamide with addition of nicotinamide (FIG. 6)): more than 500 mg. | amount dissolved ([1]; water and N,N-dimethylacetamide with addition of propylene glycol (FIG. 4)): more than 500 mg. | aqueous solubility [2]: about 100 mg./10 ml. | pH range of greatest stability [3]: 5.0-7.5
